Source: PubChem BioAssay AID248 (DTP/NCI, 2004)
Values joined by “and” are separate entries in the source; they are usually repeats but may differ in a detail not shown here. Equal values may be shown once. Toxic doses and inconclusive results are not listed.

System: L1210 leukemia ip in BDF1 mice, survival T/C
Assay: NCI In Vivo Anticancer Drug Screen. Data for tumor model L1210 Leukemia (intraperitoneal) in B6D2F1 (BDF1) mice
Details: endpoint: mean survival time, higher = longer survival
Procedure, shortened: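 Transplanted-tumor mice were given test agent; controls received vehicle only. Survival readings from the two groups were divided (treated over control).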

[1] = dose: 100.0 mg/kg/injection, schedule: Q01DX009 (ip), vehicle: Klucel (hydroxypropylcellulose) (HPC)
[2] = dose: 100.0 mg/kg/injection, schedule: Q04DX003 (ip), vehicle: Klucel (hydroxypropylcellulose) (HPC)
[3] = dose: 200.0 mg/kg/injection, schedule: Q01DX009 (ip), vehicle: Klucel (hydroxypropylcellulose) (HPC)
[4] = dose: 200.0 mg/kg/injection, schedule: Q04DX003 (ip), vehicle: Klucel (hydroxypropylcellulose) (HPC)
[5] = dose: 400.0 mg/kg/injection, schedule: Q01DX009 (ip), vehicle: Klucel (hydroxypropylcellulose) (HPC)
[6] = dose: 400.0 mg/kg/injection, schedule: Q04DX003 (ip), vehicle: Klucel (hydroxypropylcellulose) (HPC)
[7] = dose: 100.0 mg/kg/injection, schedule: Q04DX003 (ip), vehicle: saline
[8] = dose: 200.0 mg/kg/injection, schedule: Q04DX003 (ip), vehicle: saline
[9] = dose: 100.0 mg/kg/injection, schedule: Q04DX003 (ip), vehicle: saline with Tween-80
[10] = dose: 100.0 mg/kg/injection, schedule: Q01DX001 (ip), vehicle: saline
[11] = dose: 200.0 mg/kg/injection, schedule: Q01DX001 (ip), vehicle: saline
[12] = dose: 50.0 mg/kg/injection, schedule: Q01DX009 (ip), vehicle: saline
[13] = dose: 100.0 mg/kg/injection, schedule: Q01DX009 (ip), vehicle: saline

O=C(Cn1ccc(=O)[nH]c1=O)N1CCOCC1
T/C (dose: 100.0 mg/kg/injection, schedule: Q01DX009 (ip), vehicle: water): 91 % of control
T/C (dose: 100.0 mg/kg/injection, schedule: Q04DX003 (ip), vehicle: water): 100 % of control
T/C (dose: 200.0 mg/kg/injection, schedule: Q01DX009 (ip), vehicle: water): 90 % of control
T/C (dose: 200.0 mg/kg/injection, schedule: Q04DX003 (ip), vehicle: water): 92 % of control
T/C (dose: 400.0 mg/kg/injection, schedule: Q01DX009 (ip), vehicle: water): 104 % of control
T/C (dose: 400.0 mg/kg/injection, schedule: Q04DX003 (ip), vehicle: water): 94 % of control

CCOC(=O)C1CC(C(=O)OCC)c2nc3ccccc3nc21 (stereo unspecified)
T/C (dose: 50.0 mg/kg/injection, schedule: Q01DX001 (ip), vehicle: other): 88 % of control
T/C (dose: 100.0 mg/kg/injection, schedule: Q01DX001 (ip), vehicle: other): 92 % of control and 86 % of control
T/C (dose: 200.0 mg/kg/injection, schedule: Q01DX001 (ip), vehicle: other): 89 % of control
T/C (dose: 400.0 mg/kg/injection, schedule: Q01DX001 (ip), vehicle: other): 92 % of control

O=C(NCCCl)Nc1cccc2cccnc12
T/C [1]: 100 % of control
T/C [2]: 100 % of control
T/C [3]: 98 % of control
T/C [4]: 102 % of control
T/C [5]: 98 % of control
T/C [6]: 94 % of control

CCCCCCCC(=O)Oc1ccc(C)cc1
T/C (dose: 100.0 mg/kg/injection, schedule: Q01DX Z (ip), vehicle: carboxymethylcellulose (CMC)): 103 % of control
T/C (dose: 150.0 mg/kg/injection, schedule: Q01DX Z (ip), vehicle: carboxymethylcellulose (CMC)): 106 % of control
T/C (dose: 225.0 mg/kg/injection, schedule: Q01DX Z (ip), vehicle: carboxymethylcellulose (CMC)): 97 % of control

Cc1ccc(-c2nnc(-c3ccccc3)n2-c2cc(C(=O)O)ccc2C)cc1
T/C (dose: 100.0 mg/kg/injection, schedule: Q01DX001 (ip), vehicle: Klucel (hydroxypropylcellulose) (HPC)): 89 % of control
T/C [1]: 91 % of control
T/C (dose: 200.0 mg/kg/injection, schedule: Q01DX001 (ip), vehicle: Klucel (hydroxypropylcellulose) (HPC)): 91 % of control
T/C [3]: 98 % of control
T/C (dose: 400.0 mg/kg/injection, schedule: Q01DX001 (ip), vehicle: Klucel (hydroxypropylcellulose) (HPC)): 97 % of control
T/C [5]: 98 % of control

O=[N+]([O-])c1ccc(CC(O)c2ccccc2)cc1 (stereo unspecified)
T/C (dose: 50.0 mg/kg/injection, schedule: Q04DX003 (ip), vehicle: Klucel (hydroxypropylcellulose) (HPC)): 105 % of control
T/C [1]: 111 % of control
T/C [2]: 102 % of control
T/C [3]: 107 % of control
T/C [4]: 105 % of control
T/C [5]: 103 % of control
T/C [6]: 105 % of control

C/C(=C\Cl)C(=O)O
T/C [7]: 99 % of control
T/C [8]: 101 % of control

O=C(CCCCCl)Nc1cccc2c1C(=O)c1c(c(O)c3ccccc3c1O)C2=O
T/C [9]: 98 % of control
T/C (dose: 200.0 mg/kg/injection, schedule: Q04DX003 (ip), vehicle: saline with Tween-80): 90 % of control
T/C (dose: 400.0 mg/kg/injection, schedule: Q04DX003 (ip), vehicle: saline with Tween-80): 90 % of control

Cc1[nH]ccc2c(C)c3nc4ccccc4c3cc12
T/C (dose: 2.5 mg/kg/injection, schedule: Q01DX Z (ip), vehicle: carboxymethylcellulose (CMC)): 110 % of control
T/C (dose: 5.0 mg/kg/injection, schedule: Q01DX Z (ip), vehicle: carboxymethylcellulose (CMC)): 114 % of control
T/C (dose: 29.0 mg/kg/injection, schedule: Q04DX003 (ip), vehicle: saline with Tween-80): 122 % of control
T/C (dose: 40.0 mg/kg/injection, schedule: Q01DX Z (ip), vehicle: saline): 151 % of control
T/C (dose: 50.0 mg/kg/injection, schedule: Q01DX001 (ip), vehicle: saline): 98 % of control
T/C (dose: 75.0 mg/kg/injection, schedule: Q01DX Z (ip), vehicle: saline): 110 % of control
T/C [10]: 112 % of control
T/C (dose: 100.0 mg/kg/injection, schedule: Q01DX Z (ip), vehicle: saline): 92 % of control
T/C [9]: 165 % of control
T/C (dose: 150.0 mg/kg/injection, schedule: Q04DX003 (ip), vehicle: saline with Tween-80): 153 % of control
T/C [11]: 110 % of control
T/C (dose: 400.0 mg/kg/injection, schedule: Q01DX001 (ip), vehicle: saline): 122 % of control

CN1CCOC1=Nc1cccc2c1CCCC2
T/C (dose: 50.0 mg/kg/injection, schedule: Q01DX009 (ip), vehicle: other): 96 % of control
T/C (dose: 100.0 mg/kg/injection, schedule: Q01DX009 (ip), vehicle: other): 101 % of control
T/C (dose: 400.0 mg/kg/injection, schedule: Q01DX009 (ip), vehicle: other): 95 % of control

Cc1cccc(C)c1NC(=O)/C=C\C(=O)O
T/C [2]: 98 % of control
T/C [4]: 91 % of control
T/C [6]: 94 % of control

CCOC(=O)C(C)CC(=O)c1ccccc1 (stereo unspecified)
T/C (dose: 50.0 mg/kg/injection, schedule: Q01DX009 (ip), vehicle: saline with Tween-80): 106 % of control
T/C (dose: 100.0 mg/kg/injection, schedule: Q01DX009 (ip), vehicle: saline with Tween-80): 107 % of control
T/C (dose: 100.0 mg/kg/injection, schedule: Q04DX002 (ip), vehicle: saline with Tween-80): 95 % of control
T/C (dose: 200.0 mg/kg/injection, schedule: Q04DX002 (ip), vehicle: saline with Tween-80): 95 % of control

CC(=O)OCC(OC(C)=O)C(OC(C)=O)C(OC(C)=O)C(COC(=O)c1ccccc1)OC(=O)c1ccccc1 (stereo unspecified)
T/C (dose: 100.0 mg/kg/injection, schedule: Q01DX001 (ip), vehicle: saline with Tween-80): 108 % of control
T/C (dose: 200.0 mg/kg/injection, schedule: Q01DX001 (ip), vehicle: saline with Tween-80): 89 % of control
T/C (dose: 400.0 mg/kg/injection, schedule: Q01DX001 (ip), vehicle: saline with Tween-80): 104 % of control

O=C(C(Cl)Cl)C(Cl)Cl
T/C (dose: 10.0 mg/kg/injection, schedule: Q01DX001 (ip), vehicle: carboxymethylcellulose (CMC)): 106 % of control

COc1nc(N)c(C#N)c(C#N)c1C#N
T/C (dose: 15.0 mg/kg/injection, schedule: Q01DX001 (ip), vehicle: carboxymethylcellulose (CMC)): 95 % of control
T/C (dose: 30.0 mg/kg/injection, schedule: Q01DX001 (ip), vehicle: carboxymethylcellulose (CMC)): 95 % of control

C#CCCCCC#CCCCCCl
T/C (dose: 25.0 mg/kg/injection, schedule: Q01DX009 (ip), vehicle: acetone): 104 % of control
T/C (dose: 50.0 mg/kg/injection, schedule: Q01DX009 (ip), vehicle: acetone): 95 % of control
T/C (dose: 100.0 mg/kg/injection, schedule: Q01DX009 (ip), vehicle: acetone): 87 % of control
T/C (dose: 100.0 mg/kg/injection, schedule: Q04DX003 (ip), vehicle: acetone): 90 % of control
T/C (dose: 200.0 mg/kg/injection, schedule: Q04DX003 (ip), vehicle: acetone): 93 % of control

NC(N)=Nc1ccc(C(=O)Nc2ccc([N+](=O)[O-])cc2)cc1
T/C [12]: 101 % of control
T/C [13]: 94 % of control
T/C [7]: 95 % of control
T/C (dose: 200.0 mg/kg/injection, schedule: Q01DX009 (ip), vehicle: saline): 90 % of control
T/C [8]: 101 % of control
T/C (dose: 400.0 mg/kg/injection, schedule: Q04DX003 (ip), vehicle: saline): 97 % of control

S=c1[nH][nH]c(=S)s1
T/C (dose: 12.5 mg/kg/injection, schedule: Q01DX009 (ip), vehicle: Klucel (hydroxypropylcellulose) (HPC)): 92 % of control
T/C (dose: 25.0 mg/kg/injection, schedule: Q01DX009 (ip), vehicle: Klucel (hydroxypropylcellulose) (HPC)): 95 % of control
T/C (dose: 50.0 mg/kg/injection, schedule: Q01DX009 (ip), vehicle: Klucel (hydroxypropylcellulose) (HPC)): 90 % of control
T/C [12]: 97 % of control
T/C [1]: 101 % of control
T/C [13]: 97 % of control

COc1ccc2c3c1OC1C(O)=CCC4[C@H](C2)N(C)CC[C@@]314 (stereo partly specified)
T/C [10]: 95 % of control
T/C [11]: 106 % of control

CCc1c(Nc2ccccc2C)nc(N)[nH]c1=O
T/C (dose: 100.0 mg/kg/injection, schedule: Q01DX Z (ip), vehicle: methylcellulose (MC)): 100 % of control
T/C (dose: 200.0 mg/kg/injection, schedule: Q01DX Z (ip), vehicle: methylcellulose (MC)): 104 % of control
